In patent US9611278B2 (Merck Sharp & Dohme Corp., priority 2013, dated 2017):

Legend:
[1] = target: T1, sGC α1/β1 heterodimer stably expressed in CHO-K1 cells (CHO-K1/sGC) (Homo sapiens, UniProt Q02108+Q02153); assay: Cell-based sGC Functional Assay (CASA Assay); settings: for Emax: CHO-K1, activation as percentage of maximum cGMP production of Compound A (set to 100%), read-out: % Act.; for EC50: inflection point of cGMP generation in CHO-K1/sGC cells, 4P fit, 1 hr at 37° C., read-out: IP
T1 construct: expressed in transfected cells
T1 sequence (Q02108 1-690): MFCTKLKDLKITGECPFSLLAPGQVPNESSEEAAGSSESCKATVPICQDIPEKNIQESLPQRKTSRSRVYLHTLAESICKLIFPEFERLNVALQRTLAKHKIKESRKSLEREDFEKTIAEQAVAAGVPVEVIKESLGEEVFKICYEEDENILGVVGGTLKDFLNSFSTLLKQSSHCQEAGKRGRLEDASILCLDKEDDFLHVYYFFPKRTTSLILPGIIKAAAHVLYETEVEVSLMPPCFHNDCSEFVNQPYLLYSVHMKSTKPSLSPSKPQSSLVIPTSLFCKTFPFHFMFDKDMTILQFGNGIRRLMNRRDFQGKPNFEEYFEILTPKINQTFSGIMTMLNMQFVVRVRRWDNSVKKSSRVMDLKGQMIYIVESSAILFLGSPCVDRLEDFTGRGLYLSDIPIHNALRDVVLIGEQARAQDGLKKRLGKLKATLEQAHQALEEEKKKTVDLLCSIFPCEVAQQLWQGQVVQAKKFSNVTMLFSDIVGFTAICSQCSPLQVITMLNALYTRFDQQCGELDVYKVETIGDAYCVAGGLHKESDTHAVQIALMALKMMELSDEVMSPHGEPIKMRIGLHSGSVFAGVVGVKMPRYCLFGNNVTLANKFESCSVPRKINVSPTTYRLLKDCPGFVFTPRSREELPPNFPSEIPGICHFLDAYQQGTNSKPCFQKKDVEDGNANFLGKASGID
T1 sequence (Q02153 1-619): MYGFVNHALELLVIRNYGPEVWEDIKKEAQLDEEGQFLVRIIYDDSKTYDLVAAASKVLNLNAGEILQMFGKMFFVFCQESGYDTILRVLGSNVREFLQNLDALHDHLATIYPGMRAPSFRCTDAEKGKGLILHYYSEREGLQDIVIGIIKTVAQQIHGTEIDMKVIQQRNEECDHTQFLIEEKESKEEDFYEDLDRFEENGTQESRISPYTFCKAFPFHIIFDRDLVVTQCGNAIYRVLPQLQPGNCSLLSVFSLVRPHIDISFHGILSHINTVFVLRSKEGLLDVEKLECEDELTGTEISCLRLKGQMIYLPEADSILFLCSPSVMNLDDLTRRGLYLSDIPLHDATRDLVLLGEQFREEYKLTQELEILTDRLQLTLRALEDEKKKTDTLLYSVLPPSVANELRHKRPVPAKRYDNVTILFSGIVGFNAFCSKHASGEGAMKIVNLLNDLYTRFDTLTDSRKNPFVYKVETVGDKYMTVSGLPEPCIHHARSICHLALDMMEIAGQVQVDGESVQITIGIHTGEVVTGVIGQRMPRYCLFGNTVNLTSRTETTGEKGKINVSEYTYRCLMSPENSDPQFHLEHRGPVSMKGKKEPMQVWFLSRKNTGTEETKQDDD
Summary of the method: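 CHO-K1 cells stably expressing human sGC α1/β1 were incubated with compound for 1 h at 37 °C in buffer with 0.5 mM IBMX and 2.5% DMSO, with or without 1 μM DETA-NO. Intracellular cGMP was read by HTRF and expressed as percentage of maximal activation by reference activator Compound A. Values came from a 4-parameter fit.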

[2] = tested on: Spontaneously hypertensive rats (SHR); assay: Acute Efficacy in Spontaneously Hypertensive Rats (SHR); type: in vivo, rat; settings: single oral dose
From the text: Spontaneously hypertensive rats (SHR, male, Charles River) were implanted with DSI TA11PA-C40 telemetry device (Data Sciences, Inc., St. Paul, Minn.) under isoflurane or ketamine/metomidine anesthesia. The telemetry unit catheter was inserted into the descending aorta via the femoral artery and the telemetry device was implanted subcutaneously in the left flank area. Animals were allowed to recover from surgery for 14 days before the start of any studies. Blood pressure, heart rate, and activity signals from conscious, freely moving rats were recorded continuously for 30 seconds every 10 min. On the day prior to administration of compound, a single oral dose of vehicle (10% transcutol/20% Cremophor/70% water) was administered to all animals to establish baseline control data. The blood pressure lowering efficacy of compound (PO) or vehicle was evaluated following a single oral gavage. Data were collected as hourly averages, and changes in blood pressure were calculated by subtracting control baseline data on an hourly basis. Animals were maintained on normal diet with a 12 hour light-dark cycle.
Maximum peak decreases of systolic blood pressure (SBP) in SHR at a particular P.O. dose (mpk milligrams per kilogram) for the following representative compounds are provided in Table 9. Category A=SBP in SHRs <15 mmHg; Category B=SBP in SHRs 15-25 mmHg; Category C=SBP in SHRs >25 mmHg

| Compound | Emax [1] [%] | EC50 [1] [nM] | % Act. ([1]; activation as percentage of maximum cGMP production of Compound A (set to 100%)) [%] | Category: maximum peak decrease of systolic blood pressure (SBP) in SHR ([2]; P.O. 3 mpk) | Category: maximum peak decrease of systolic blood pressure (SBP) in SHR ([2]; P.O. 1 mpk) | Category: maximum peak decrease of systolic blood pressure (SBP) in SHR ([2]; P.O. 0.3 mpk) |
| --- | --- | --- | --- | --- | --- | --- |
| [2H]C([2H])([2H])n1ncc2c(-c3nc(N)c4c(n3)NC(=O)C4(c3nnnn3C)C3CC3)nc(CCC(F)(F)C(F)(F)F)nc21 (stereo not drawn) [Example 25, 4-Amino-5-cyclopropyl-5-(1-methyl-1H-tetrazol-5-yl)-2-(1-(methyl-d3)-6-(3,3,4,4,4-pentafluorobutyl)-1H-pyrazolo[3,4-d]pyrimidin-4-yl)-5,7-dihydro-6H-pyrrolo[2,3-d]pyrimidin-6-one] | 93 | 991 | – | C (Category C=SBP in SHRs >25 mmHg) | – | – |
| [2H]C([2H])([2H])n1ncc2c(-c3nc(N)c4c(n3)NC(=O)C4(c3nnc(C4CC4)o3)C3CC3)nc(CCC(F)(F)C(F)(F)F)nc21 (stereo not drawn) [Example 38, 4-Amino-5-cyclopropyl-5-(5-cyclopropyl-1,3,4-oxadiazol-2-yl)-2-(1-(methyl-d3)-6-(3,3,4,4,4-pentafluorobutyl)-1H-pyrazolo[3,4-d]pyrimidin-4-yl)-5,7-dihydro-6H-pyrrolo[2,3-d]pyrimidin-6-one] | 165 | 265 | – | – | C (Category C=SBP in SHRs >25 mmHg) | – |
| Cn1ncc2c(-c3nc(N)c4c(n3)NC(=O)C4(c3nnc(C4CC4)o3)C3CC3)nc(CCC(F)(F)C(F)(F)F)nc21 (stereo not drawn) [Example 44, 4-Amino-5-cyclopropyl-5-(5-cyclopropyl-1,3,4-oxadiazol-2-yl)-2-(1-methyl-6-(3,3,4,4,4-pentafluorobutyl)-1H-pyrazolo[3,4-d]pyrimidin-4-yl)-5,7-dihydro-6H-pyrrolo[2,3-d]pyrimidin-6-one] | 113 | 225 | – | – | B (Category B=SBP in SHRs 15-25 mmHg) | – |
| [2H]C([2H])([2H])n1ncc2c(-c3nc(N)c4c(n3)NC(=O)C4(C)c3cn(CC4CC4)nn3)nc(CCC(F)(F)C(F)(F)F)nc21 (stereo not drawn) [Example 63, 4-Amino-5-(1-(cyclopropylmethyl)-1H-1,2,3-triazol-4-yl)-5-methyl-2-(1-(methyl-d3)-6-(3,3,4,4,4-pentafluorobutyl)-1H-pyrazolo[3,4-d]pyrimidin-4-yl)-5,7-dihydro-6H-pyrrolo[2,3-d]pyrimidin-6-one] | 93 | 235 | – | – | A (Category A=SBP in SHRs <15 mmHg) | – |

More lines, main results first:

| Emax [1] [%] | EC50 [1] [nM] | % Act. ([1]; activation as percentage of maximum cGMP production of Compound A (set to 100%)) [%] | Compound | Category: maximum peak decrease of systolic blood pressure (SBP) in SHR ([2]; P.O. 3 mpk) | Category: maximum peak decrease of systolic blood pressure (SBP) in SHR ([2]; P.O. 1 mpk) | Category: maximum peak decrease of systolic blood pressure (SBP) in SHR ([2]; P.O. 0.3 mpk) |
| --- | --- | --- | --- | --- | --- | --- |
| – | 120 | 128 | [2H]C([2H])([2H])n1ncc2c(-c3nc(N)c4c(n3)NC(=O)C4(C)c3cn(C(C)C)nn3)nc(CCC(F)(F)C(F)(F)F)nc21 (stereo not drawn) [Example 67, 4-Amino-5-(1-isopropyl-1H-1,2,3-triazol-4-yl)-5-methyl-2-(1-(methyl-d3)-6-(3,3,4,4,4-pentafluorobutyl)-1H-pyrazolo[3,4-d]pyrimidin-4-yl)-5,7-dihydro-6H-pyrrolo[2,3-d]pyrimidin-6-one] | – | – | B (Category B=SBP in SHRs 15-25 mmHg) |
| 103 | 368 | – | CC(C)n1cc(C2(C)C(=O)Nc3nc(-c4nc(CCCC(F)(F)F)nc5c4cnn5C)nc(N)c32)nn1 (stereo not drawn) [Example 78, 4-Amino-5-(1-isopropyl-1H-1,2,3-triazol-4-yl)-5-methyl-2-(1-methyl-6-(4,4,4-trifluorobutyl)-1H-pyrazolo[3,4-d]pyrimidin-4-yl)-5,7-dihydro-6H-pyrrolo[2,3-d]pyrimidin-6-one] | – | C (Category C=SBP in SHRs >25 mmHg) | – |
| 104 | 410 | – | Cn1ccc2c(-c3nc(N)c4c(n3)NC(=O)C4(C)c3nnc(C4CC4)o3)nc(CCC(F)(F)C(F)(F)F)nc21 (stereo not drawn) [Example 86, 4-Amino-5-(5-cyclopropyl-1,3,4-oxadiazol-2-yl)-5,7′-dimethyl-2′-(3,3,4,4,4-pentafluorobutyl)-5,7-dihydro-6H,7′H-[2,4′-bipyrrolo[2,3-d]pyrimidin]-6-one] | – | B (Category B=SBP in SHRs 15-25 mmHg) | – |
